# Laboratory results reported in patent US12409148B2, “Plant tissue-derived nanoparticles and food powders” (PSIGRYPH INC., priority 2018, dated 2025).
# Entries after “also recorded” stand apart in the source; their conditions may differ.
# Key:
# [1] = test system: Colorectal MDR cell line CRL 2158
# Procedure: (§1) Cell culture: Three cell lines derived from colon, CRL 1790, a normal cell line, HT 29, a colorectal cancer cell line and CRL 2158 a multidrug resistant colorectal cancer cell line (ATCC) were used to evaluate the cytotoxicity of nanocomplexes. Cells were cultured in media specifically recommended for each cell line. For HT 29, the medium used was DMEM (Dulbecco's modified Eagle's medium, Sigma), for CRL 2158, the medium used was RPMI, and for CRL 1790, the medium used was EMEM (Eagle's minimum essential medium; Cedarlane Labs, Burlington, ON, Canada). All the media were supplemented with FBS, Penicillin/streptomycin, and L-glutamine. At confluency (˜80%), cells were washed with 1×PBS twice. Cells were incubated with trypsin-EDTA for 5 minutes and then diluted in respective media supplemented with 10% FBS before staining with trypan blue (50 ul of cells and 450 ul of trypan blue) and counting viable cells to evaluate cytotoxicity. The cytotoxicity was determined by trypan blue exclusion by living cells and blue staining of dead cells. The number of dead cells in a unit area was counted and expressed as a percentage of total cells in the area. […]
# [2] = test system: Normal Cell Line CRL 1790
# Procedure: as §1
# [3] = DPPH radical scavenging capacity of food powder; assay type: biochemical; details: positive control at same concentrations as polyphenols
# [4] = test system: HT 29 cells; test: Calcein uptake by confocal microscopy; assay type: cell-based, human
# Procedure: (§2) Calcein uptake into HT 29, CRL 1790 cells: Uptake of calcein-loaded nanoparticles into mammalian cells. Calcein by itself is impermeable through membrane, and may be taken up at a low level by endocytosis. Ethanol-bleached cherry was homogenized in water, also containing 1 mg/g fresh weight equivalent of calcein, and the supernatant dialyzed against water. Calcein complexed to nanofilaments is retained within the dialysis bag, and used for uptake measurements by confocal microscopy.
# (§3) Studies were also performed to investigate use of nanofibres as delivery vehicles for a cargo of interest, where the cargo was non-covalently complexed with the nanofibres. In this study, nanofibres were used for cellular delivery of calcein. […]
# (§4) Uptake of complexed molecules by nanofibres: Nanofibres are extremely long (micrometers in length, ˜5 nm in diameter; see FIG. 37, for example), and their ability to cross the plasma membrane was investigated. […] HT-29 and CRL-1790 cells were incubated in the presence of calcein alone, and calcein-complexed nanofibres (of equal fluorescence intensity). Uptake of calcein and calcein complexed with nanofibres were monitored by confocal microscopy. […] Similar experiments were also conducted with nanoparticles, however, because of quenching of fluorescence by polyphenols, successful acquisition of images was not achieved.
# [5] = test system: CRL 1790 cells; test: Calcein uptake by confocal microscopy; assay type: cell-based, human
# Procedure: as §2, §3, §4
smiles,measurement,setting,value
"CC(=O)O[C@H]1C(=O)[C@@]2(C)[C@H]([C@H](OC(=O)c3ccccc3)[C@]3(O)C[C@H](OC(=O)[C@H](O)[C@@H](NC(=O)c4ccccc4)c4ccccc4)C(C)=C1C3(C)C)[C@]1(OC(C)=O)CO[C@@H]1C[C@@H]2O [Paclitaxel, paclitaxel]",cytotoxicity (in words),[1],low level of cytotoxicity
same,cytotoxicity (in words),[2],low level of cytotoxicity
Cc1c(C)c2c(c(C)c1O)CCC(C)(C(=O)O)O2 (centres unmarked) [Trolox],TEAC value,[3],1
O=C(O)CN(CC(=O)O)Cc1cc2c(cc1O)Oc1cc(O)c(CN(CC(=O)O)CC(=O)O)cc1C21OC(=O)c2ccccc21 [calcein],uptake of calcein into cells,[4],comparatively very low; also recorded: Far reduced uptake
same,uptake of calcein into cells,[5],comparatively very low
